Calls of active or inactive are those of the source. The calls are words filed in the database; no cut-off is given here.

What all share (format): functional, cell-based
Test [1] has as its system MOLM-13. Briefly: Induction of apoptosis in human MOLM13 cells assessed as increase in caspase-3 cleavage at 5 uM after 24 hrs by Western blot analysis. In general terms: In western blotting, separated proteins are transferred to a membrane and probed.
The next test relates to MOLM-14. Briefly: Antiproliferative activity against human MOLM14 cells by Cell-Titer Glo assay.
In test [2] the test system is MOLM-13. The experiment in a line: Induction of apoptosis in human MOLM13 cells assessed as increase in PARP cleavage at 5 uM after 24 hrs by Western blot analysis.
Test [3] deals with MOLM-13. The experiment in a line: Antiproliferative activity against human MOLM13 cells by Cell-Titer Glo assay.
Test [4] concerns MOLM-13. Briefly: Cell cycle arrest in human MOLM13 cells assessed as accumulation at G0/G1 phase at 5 uM by flow cytometry.
The test system of the next test is MV4-11. The experiment in a line: Antiproliferative activity against human MV4-11 cells by Cell-Titer Glo assay.

In general, IC50 refers to the concentration that inhibits the measured activity by half. A high value points to weaker potency in that assay. With `O=C1C[C@H]2c3cc(O)c(O)cc3[C@H](c3ccc(O)c(O)c3)[C@H]2O1`, the outcome with MOLM-13 [1], in the test on MOLM-13 [2] and in the test with MOLM-13 [4] was Active. The IC50 in the test with MOLM-14 (Homo sapiens, MOLM-14) was 7.1 µM; in the test on MOLM-13 [3], 2.3 µM; in the test on MV4-11 it was > 10 µM.

Take `O=C(O)/C=C/c1ccc(O)c(O)c1` [CAFFEIC ACID]: the half-maximal inhibitory concentration (IC50) was > 10 µM in the test on MOLM-14 (Homo sapiens, MOLM-14); 6.4 µM with MOLM-13 [3]; > 10 µM in the test with MV4-11.

In the case of `COC(=O)[C@@H](Cc1ccc(O)c(O)c1)OC(=O)/C=C/c1ccc(O)c(O)c1` [METHYL ROSMARINATE], the IC50 in the test with MOLM-14 (Homo sapiens, MOLM-14) is > 10 µM; with MOLM-13 [3] it was 8.4 µM; in the test on MV4-11 it was > 10 µM.

With `O=C(/C=C/c1ccc(O)c(O)c1)O[C@H](Cc1ccc(O)c(O)c1)C(=O)O` [ROSMARINIC ACID], the half-inhibitory concentration (IC50) with MOLM-14 (Homo sapiens, MOLM-14) was 7.1 µM; in the test on MOLM-13 [3], 2.9 µM; with MV4-11, > 10 µM.

As for `O=C(/C=C/c1ccc(O)c(O)c1/C=C/c1ccc(O)c(O)c1)O[C@H](Cc1ccc(O)c(O)c1)C(=O)O` [SALVIANOLIC ACID A], the IC50 was 6.2 µM in the test with MOLM-14 (molm-14), 2.5 µM in the test on MOLM-13 [3] and > 10 µM in the test on MV4-11.

Consider `COC(=O)[C@H](O)Cc1ccc2c(c1)O[C@H]([C@H](OC)c1ccc(O)c(O)c1)O2`, for which the concentration for half-maximal inhibition (IC50) in the test with MOLM-14 (Homo sapiens, MOLM-14) was > 10 µM; in the test with MOLM-13 [3] it was 5.2 µM; with MV4-11 it was > 10 µM.

`Nc1ccc(-c2ccc3ncc4ccc(=O)n(-c5cccc(C(F)(F)F)c5)c4c3c2)cn1`: the half-maximal inhibitory concentration (IC50) with MOLM-14 (Homo sapiens, MOLM-14) is < 0.001 µM; in the test with MOLM-13 [3] it was < 0.001 µM; in the test with MV4-11, < 0.001 µM.

Consider `COC(=O)[C@H](O)Cc1ccc(O)c(O)c1`, for which the half-inhibitory concentration (IC50) is > 10 µM with MOLM-14 (Homo sapiens, MOLM-14); 7.5 µM in the test with MOLM-13 [3]; > 10 µM with MV4-11.

With `COC(=O)[C@@H](Cc1ccc(O)c(O)c1)OC(=O)/C=C/c1ccc(O)c(O)c1/C=C/c1ccc(O)c(O)c1`, the concentration for half-maximal inhibition (IC50) in the test on MOLM-14 (Homo sapiens, MOLM-14) was > 10 µM; in the test on MOLM-13 [3] it was 6.7 µM; in the test on MV4-11, > 10 µM.

The record behind these values is ChEMBL document CHEMBL4266028, “Salviachinensines A-F, Antiproliferative Phenolic Derivatives from the Chinese Medicinal Plant Salvia chinensis” (J Nat Prod, 2018).
